Measurements published in PMC5908784, “Extracellular loops 2 and 3 of the calcitonin receptor selectively modify agonist binding and efficacy” (Biochemical Pharmacology, 2018).
Where a chain is given by its changes, count along the chain named. Where no end group is shown, it is not given here.

What was measured:
Assay in all cases: Homologous whole cell competition binding
Conditions in all cases: homologous competition of 125I-sCT(8-32), whole cells, mean ± S.E.M., SEM
[1] = molecular target: T1, hCTR L298A (Homo sapiens, UniProt P30988, L298A)
T1 construct: c-Myc (N); expressed in transfected cells
T1 sequence (P30988 25-474 L298A): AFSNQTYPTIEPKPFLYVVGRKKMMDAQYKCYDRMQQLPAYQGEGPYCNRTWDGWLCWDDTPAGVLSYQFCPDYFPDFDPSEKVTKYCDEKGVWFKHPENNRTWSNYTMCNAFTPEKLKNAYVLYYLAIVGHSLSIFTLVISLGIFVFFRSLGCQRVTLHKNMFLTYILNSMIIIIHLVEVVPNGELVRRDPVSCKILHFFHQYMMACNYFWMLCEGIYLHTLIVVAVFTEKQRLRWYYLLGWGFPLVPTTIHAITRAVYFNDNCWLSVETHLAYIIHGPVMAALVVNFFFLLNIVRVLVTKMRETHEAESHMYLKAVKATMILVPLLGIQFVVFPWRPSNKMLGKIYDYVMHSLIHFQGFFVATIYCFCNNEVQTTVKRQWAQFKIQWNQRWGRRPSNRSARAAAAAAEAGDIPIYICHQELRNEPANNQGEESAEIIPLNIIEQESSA
Procedure: (§1) Homologous radioligand competition was performed on 2.5 × 10^4 cells/well seeded into 96-well trays and cultured overnight. Cells were incubated overnight at 4 °C with two concentrations of ^125I-sCT(8-32) (between 25 and 100 pM; specific activity, 2000 Ci/mmol^9) and serial dilutions of non-iodinated sCT(8-32). Non-bound ligand was removed and bound ligand activity was measured using a γ counter (Wallac Wizard 1470 Gamma Counter, Perkin Elmer, 80% counter efficiency). Values were normalized against non-specific binding (0%) defined by the presence of 1 μM of unlabelled sCT(8-32), and total ligand bound in absence of competing sCT(8-32) (100%).
(§2) IC50 and Bmax values were estimated from competitive inhibition of ^125I-sCT(8-32) binding using a 3-parameter logistic equation (log(inhibitor versus response)) in Prism (v7; Graphpad). Data were corrected for radioligand occupancy using the Cheng-Prusoff equation in Prism; as such data are reported as pKi. Emax and EC50 were estimated from concentration-response curves using with a 3-parameter logistic equation in Prism (v7). These values are a composite of functional affinity, efficacy and stimulus response coupling. The Black and Leff operational model of agonism was applied to separate effects on pathway-specific efficacy (τ) from those that modify ligand functional affinity (pKA). Derived τ values were normalized to experimentally determined levels of cell surface expression to provide a measure of efficacy (τc) that is independent of affinity and altered cell surface receptor expression. pKi, pKA and log τc values for mutant receptors were statistically compared to those of the WT receptor using a one-way analysis of variance (ANOVA) and Dunnett’s post-test. Significance was accepted at P < 0.05.

[2] = molecular target: T2, hCTR P363A (Homo sapiens, UniProt P30988, P363A)
T2 construct: expressed in transfected cells
T2 sequence (P30988 25-474 P363A): T1 sequence (P30988 25-474 L298A) with A274L, P339A
Procedure: as §1, §2

[3] = molecular target: T3, hCTR T295A (Homo sapiens, UniProt P30988, T295A)
T3 construct: c-Myc (N); expressed in transfected cells
T3 sequence (P30988 25-474 T295A): T1 sequence (P30988 25-474 L298A) with T271A, A274L
Procedure: as §1, §2

[4] = molecular target: T4, hCTR P360A (Homo sapiens, UniProt P30988, P360A)
T4 construct: expressed in transfected cells
T4 sequence (P30988 25-474 P360A): T1 sequence (P30988 25-474 L298A) with A274L, P336A
Procedure: as §1, §2

Ki [1]: 0.148 nM
Ki [2]: 0.355 nM
Ki [3]: 0.0501 nM
Ki [4]: 0.603 nM
Substance: VLGKLSQELHKLQTYPRTNTGSGTP-NH2 [sCT(8-32)]
